In patent US20260041683A1, “Compounds with Anti-Acinetobacter Baumannii Activity” (University of Kentucky Research Foundation, priority 2022, published 2026):
≈ marks a conversion by molar mass, not a printed value.

Legend:
[1] = system: all 43 strains of A. baumannii (41 CDC strains and 2 ATCC strains); assay: MIC value statistics for all A. baumannii strains; format: cell-based, Acinetobacter baumannii; conditions: of 43 A. baumannii strains
Experimental: All bacterial strains listed above were stored at −80° C. All strains were streaked on Mueller-Hinton (MH) plates and allowed to grow at 37° C. overnight. Enough colonies were scraped from the plate and suspended in MH broth with vortexing to reach an attenuance at 600 nm (OD600) of ˜0.5. The resulting culture was diluted 1:1000 and added to the prepared serially doubly diluted compound solutions in 96-well plates. […]. For each row, one well was reserved for sterile control (which consisted of 200 μL of MH medium) and another well was reserved for growth control (which consisted of 100 μL of MH medium seeded with 100 μL of bacterial culture).
Having established that the observed activity is selective to A. baumannii, all synthesized compounds were tested against a panel of antibiotic resistant A. baumannii from the Antimicrobial Resistant (AR) Isolate Bank from the CDC along with strains I and J (Table Si). […]. Based on this statistical analysis, the best compound is 5e followed closely by 3e.

Ab ATCC 19606 (strain I) = assay: MIC determination (double dilution, Mueller-Hinton broth); format: cell-based, Acinetobacter baumannii; conditions: Acinetobacter baumannii, ATCC19606; Table 1; control strain; read-out: MIC Ab ATCC 19606
Experimental: All bacterial strains listed above were stored at −80° C. All strains were streaked on Mueller-Hinton (MH) plates and allowed to grow at 37° C. overnight. […] The resulting culture was diluted 1:1000 and added to the prepared serially doubly diluted compound solutions in 96-well plates. For M. smegmatis, a 1:100 dilution of the bacteria was done in MH. All MIC values were determined using 96-well plates with low evaporation seals at least in duplicate. For each row, one well was reserved for sterile control (which consisted of 200 μL of MH medium) and another well was reserved for growth control (which consisted of 100 μL of MH medium seeded with 100 μL of bacterial culture).
(§1) Minimum inhibitory concentrations (MIC) of all compounds from the series were measured in liquid cultures of different Ab strains by a double-dilution method in Mueller-Hinton broth. Initially, the activity of all 46 compounds against Ab ATCC 19606 (a control strain) and Ab ATCC BAA1605 (a multidrug-resistant strain) (Table 1; data shown for 27 representative compounds) was measured.

[2] = system: Ab ATCC BAA1605 (strain J, multidrug-resistant); assay: MIC determination; format: cell-based; conditions: Acinetobacter baumannii; Table 1; multidrug-resistant strain; read-out: MIC Ab ATCC BAA 1605
Experimental: All bacterial strains listed above were stored at −80° C. All strains were streaked on Mueller-Hinton (MH) plates and allowed to grow at 37° C. overnight. Enough colonies were scraped from the plate and suspended in MH broth with vortexing to reach an attenuance at 600 nm (OD600) of ˜0.5. The resulting culture was diluted 1:1000 and added to the prepared serially doubly diluted compound solutions in 96-well plates. For M. smegmatis, a 1:100 dilution of the bacteria was done in MH. All MIC values were determined using 96-well plates with low evaporation seals at least in duplicate. For each row, one well was reserved for sterile control (which consisted of 200 μL of MH medium) and another well was reserved for growth control (which consisted of 100 μL of MH medium seeded with 100 μL of bacterial culture).
as §1

SMILES	number of compound/strain combinations with MIC value 0.25 μg/mL [1]	number of compound/strain combinations with MIC value 0.5 μg/mL [1]	number of compound/strain combinations with MIC value 1 μg/mL [1]	number of compound/strain combinations with MIC value 2 μg/mL [1]	number of compound/strain combinations with MIC value ≤0.125 μg/mL [1]	number of compound/strain combinations with MIC value >64 μg/mL [1]	MIC (Ab ATCC 19606 (strain I))	MIC [2]
O=C(NNc1cccc(F)c1)c1ccc(F)cc1F [Compound 1a]	3	26	9	4	1			
CCOC(=O)CNNC(=O)c1ccc(F)cc1F [Compound 1g]						43		
O=C(NNC1CCCCC1)c1ccc(F)cc1F [Compound 1h]						43		
O=C(NNc1cccc(F)c1)c1ccccn1 [Compound 2a]	10	18	10	3	2		2 µg/mL (≈ 8.65 µM)	0.5 µg/mL (≈ 2.16 µM)
CCOC(=O)CNNC(=O)c1ccccn1 [Compound 2g]						43		
CCOC(=O)CNNC(=O)c1ccc(F)cn1 [Compound 3g]						43	> 64 µg/mL	> 64 µg/mL
O=C(NNc1cccc(F)c1)c1ccc(Br)cn1 [Compound 4a]	2	8	19	14			0.5 µg/mL (≈ 1.61 µM)	0.5 µg/mL (≈ 1.61 µM)
O=C(NNc1cccc(F)c1)c1cccc(F)n1 [Compound 5a]	1	8	25	9				
CCOC(=O)CNNC(=O)c1cccc(F)n1 [Compound 5g]						43	> 64 µg/mL	> 64 µg/mL
O=C(NNc1cccc(F)c1)c1cccc(Br)n1 [Compound 6a]	4	16	19	4			0.5 µg/mL (≈ 1.61 µM)	0.5 µg/mL (≈ 1.61 µM)
O=C(NNc1cccc(F)c1)c1ncc(F)cc1F [Compound 7a]	5	19	18		1			
O=C(NNc1ccc(Cl)cc1)c1ncc(F)cc1F [Compound 7e]	28	7			8		0.125 µg/mL (≈ 0.441 µM)	0.125 µg/mL (≈ 0.441 µM)
O=C(NNc1cccc(F)c1)c1nc(F)ccc1F [Compound 8a]	11	12	18		2			
O=C(NNc1ccc(Cl)cc1)c1nc(F)ccc1F [Compound 8e]	34	2			7		0.125 µg/mL (≈ 0.441 µM)	0.0625 µg/mL (≈ 0.22 µM)
O=C(NNc1ccc(Cl)cc1)c1cnccn1 [Compound 9e]	8	19	15		1			
CCOC(=O)CNNC(=O)c1cnccn1 [Compound 9g]						43		
O=C(NNC1CCCCC1)c1cnccn1 [Compound 9h]						43		
O=C(NNc1cccc(F)c1)c1ccccc1 [Compound 10a]	19	17	1		6		0.25 µg/mL (≈ 1.09 µM)	0.5 µg/mL (≈ 2.17 µM)
O=C(NNc1cccc(F)c1)c1cccnc1 [Compound 11a]	11	26	4		2		0.25 µg/mL (≈ 1.08 µM)	0.5 µg/mL (≈ 2.16 µM)
O=C(NNc1ccc(Cl)cc1)c1cccnc1 [Compound 11e]	15	19	4		5			
O=C(NNC1CCCCC1)c1cccnc1 [Compound 11h]						43	> 64 µg/mL	> 64 µg/mL
O=C(NNc1cccc(F)c1)c1cnc2ccccc2n1 [Compound 13a]	6	19	15	3				
O=C(NNc1ccc(Cl)cc1)c1cnc2ccccc2n1 [Compound 13e]	9	22	12				0.5 µg/mL (≈ 1.67 µM)	0.25 µg/mL (≈ 0.837 µM)
O=C(NNc1cccc(F)c1)c1cc2ccccc2[nH]1 [Compound 14a]	13	25	5				0.25 µg/mL (≈ 0.928 µM)	0.25 µg/mL (≈ 0.928 µM)
O=C(NNc1cccc(F)c1)c1ccco1 [Compound 15a]	21	16			6			
CCC(=O)NNc1cccc(F)c1 [Compound 16a]	10	15	14		4			
